Assay results: US4169150A, “Benzodiazepine derivatives and pharmaceutical compositions containing said derivatives” (Teijin Limited, priority 1975, dated 1979)

Legend:
mice [1] = test: Motor incoordinating activity (rotating rod); assay type: in vivo, mouse (ddY-type male mice); conditions: Mus musculus, 0.05 h, PO, 5.5 rpm, within 3 minutes, read-out: ED50 motor incoordination, rotating rod
Experimental: (§1) In the following tests, the pharmacological actions of the compounds were tested by using six mice (ddY-type male mice) for each dosage level, and ED50 values were determined. In the determination of ED50 values, the dosages of the test compounds were increased or decreased by a common ratio of 3 as required, and 3 or 4 dosage levels were used. The calculation of the ED50 values was made on the basis of the Litchfield-Wilcoxon method [J. Pharmacol. Exp. Therap., 96, 99 (1949)].
(6) Motor incoordinating activity
Mice which could stay for more than 3 minutes on a rotating rod having a diameter of 3.0 cm and rotating at a speed of 5.5 rpm. The subjects were orally administered with the test compound, and then at intervals of 30 minutes, they were placed on the rotating rod. Examination was made as to whether they slipped down within 3 minutes.

mice [2] = test: Anti-pentylene tetrazole convulsion activity; assay type: in vivo, mouse (ddY-type male mice); conditions: Mus musculus, PO, pentylene tetrazole 125 mg/kg s.c. 1 hour later, read-out: ED50 anti-convulsion, pentetrazol shock
Experimental: as §1
(1) Anti-pentylene tetrazole convulsion activity
Each of test compounds suspended in a 5% gum arabic solution was orally administered to mice. One hour later, pentylene tetrazole in an amount of 125 mg/kg was administered subcutaneously. Then, over the course of 30 minutes, the presence or absence of convulsion in the subjects was examined.

mice [3] = test: Muscle relaxant activity (inclined screen); assay type: in vivo, mouse (ddY-type male mice); conditions: Mus musculus, PO, plate inclined at 70°, 30 seconds, read-out: ED50 muscle relaxation, inclined screen
Experimental: as §1
(5) Muscle relaxant activity
Mice were placed on a wooden plate having a smooth surface and being inclined at an angle of 70°, and those which could stay on the initially placed positions for more than 30 seconds were selected. The selected subjects were orally administered with the test compound, and placed on the inclined plate. Examination was made as to whether the mice slipped down within 30 seconds.

mice [4] = test: Taming activity (fighting mouse); assay type: in vivo, mouse (ddY-type male mice); conditions: PO, electroshock 100 V, 3 mA
Experimental: as §1
This was determined by a partially modified version of the method of Tedeschi et al. [J. Pharmacol. Exp. Therap., 125, 28 (1959)]. Two mice different in body weight by less than 1 gram were placed in a fighting device, and electroshock (100 V, 3 mA, 0.45 Hz, 0.5 sec) was applied for 3 minutes. […] Then, at intervals of 30 minutes, electroshock was applied under the above conditions, and the presence or absence of fighting reaction in the subjects was examined.

mice [5] = test: Potentiation of thiopental hypnosis (sedation); assay type: in vivo, mouse (ddY-type male mice); conditions: Mus musculus, 1 h, PO, sodium thiopental 50 mg/kg i.p., sleeping time prolonged to two times
Experimental: as §1
(4) Potentiation of thiopental hypnosis
The subjects were orally administered with the test compound. One hour later, sodium thiopental in an amount of 50 mg/kg was administered intraperitoneally. The dosage which prolonged the sleeping time (the period of loss of righting reflex) to two times that in the case of a group administered only with sodium thiopental was determined.

mice [6] = test: Anti-electroshock convulsant activity (maximal electroshock); assay type: in vivo, mouse (ddY-type male mice); conditions: Mus musculus, PO, electroshock 30 mA, 200 Hz 1 hour later, read-out: ED50 anti-convulsion, maximal electroshock
Experimental: as §1
(3) Anti-electroshock convulsant activity
The subjects were orally administered with the test compound. One hour later, electroshock (30 mA, 200 Hz, 1 msec) was applied for 0.2 second through both ears, and the presence or absence of tonic extensor convulsion was examined.

[7] = Pharmacological / central nervous system depressant actions, general statement; assay type: in vivo; conditions: anti-anxietic, sedative, hypnotic, muscle relaxant, anti-convulsant actions
mice [8] = test: Acute toxicity; assay type: in vivo, mouse (male ddY-type mice); conditions: one week observation
Experimental: A test compound was suspended in a 5% solution of gum arabic, and the suspension was administered to a group of 2 to 4 male ddY-type mice in a dose of 1000, 2000, and 3000 mg/kg, respectively. The conditions of the subjects were observed over a period of one week after administration, and the acute toxicity was examined.

## Cc1cc(C)n2c1CN=C(c1ccccc1F)c1cc(Cl)ccc1-2 [Compound 10, 8-chloro-1,3-dimethyl-6-(2-fluorophenyl)-4H-pyrrolo[1,2-a][1,4]benzodiazepine]
Mice [1]
  ED50: > 30 mg/kg
Mice [2]
  ED50: 5.5 mg/kg
Mice [3]
  ED50: 21.5 mg/kg
Mice [4]
  ED50: 8.8 mg/kg
Mice [5]
  ED50: 2.4 mg/kg
Mice [6]
  ED50: > 100 mg/kg

## CCc1cc2n(c1C)-c1ccc(Cl)cc1C(c1ccccc1F)=NC2 [Compound 7, 8-chloro-2-ethyl-6-(2-fluorophenyl)-1-methyl-4H-pyrrolo[1,2-a][1,4]benzodiazepine]
Mice [1]
  ED50: > 100 mg/kg
Mice [2]
  ED50: 5.5 mg/kg
Mice [3]
  ED50: 30 mg/kg
Mice [4]
  ED50: 5.5 mg/kg
Mice [5]
  ED50: 2.2 mg/kg
Mice [6]
  ED50: > 30 mg/kg

## Clc1ccc2c(c1)C(c1ccccc1)=NCc1cccn1-2 [Comparison (R5=Cl, R6=H, R7=H), 8-Chloro-6-phenyl-4H-pyrrolo[1,2-a][1,4]benzodiazepine, reference compound]
Mice [1]
  ED50: > 100 mg/kg
[7]
  Pharmacological actions in words: does not substantially show those pharmacological actions which are common to many other known benzodiazepines
Mice [2]
  ED50: 78 mg/kg
Mice [3]
  ED50: > 100 mg/kg
Mice [4]
  ED50: > 100 mg/kg
Mice [5]
  ED50: 44 mg/kg
Mice [6]
  ED50: > 100 mg/kg

## Cc1cc2n(c1C)-c1ccc(Cl)cc1C(c1ccccc1Cl)=NC2 [Compound 4, 8-chloro-6-(2-chlorophenyl)-1,2-dimethyl-4H-pyrrolo[1,2-a][1,4]benzodiazepine]
Mice [1]
  ED50: 40 mg/kg
Mice [2]
  ED50: 6.5 mg/kg
Mice [3]
  ED50: > 100 mg/kg
Mice [4]
  ED50: 4.8 mg/kg
Mice [5]
  ED50: 2.6 mg/kg
Mice [6]
  ED50: > 100 mg/kg

## Cc1cc2n(c1C)-c1ccc(Cl)cc1C(c1ccccc1F)=NC2 [Compound 3, 8-chloro-1,2-dimethyl-6-(2-fluorophenyl)-4H-pyrrolo[1,2-a][1,4]benzodiazepine]
Mice [1]
  ED50: > 100 mg/kg
Mice [2]
  ED50: 10 mg/kg
Mice [3]
  ED50: > 100 mg/kg
Mice [4]
  ED50: 17 mg/kg
Mice [5]
  ED50: 10 mg/kg
Mice [6]
  ED50: > 100 mg/kg

## CCc1cc2n(c1C)-c1ccc(Cl)cc1C(c1c(F)cccc1F)=NC2 [Compound 8, 8-chloro-2-ethyl-6-(2,6-difluorophenyl)-1-methyl-4H-pyrrolo[1,2-a][1,4]benzodiazepine]
Mice [1]
  ED50: > 100 mg/kg
Mice [2]
  ED50: 11.2 mg/kg
Mice [3]
  ED50: 69 mg/kg
Mice [4]
  ED50: 12.5 mg/kg
Mice [5]
  ED50: 1.9 mg/kg
Mice [6]
  ED50: > 30 mg/kg

## Cc1cc2n(c1C)-c1ccc(Cl)cc1C(c1ccccc1)=NC2 [Compound 5, 8-chloro-1,2-dimethyl-6-phenyl-4H-pyrrolo[1,2-a][1,4]benzodiazepine]
Mice [1]
  ED50: > 100 mg/kg
Mice [2]
  ED50: 13.5 mg/kg
Mice [3]
  ED50: > 100 mg/kg
Mice [4]
  ED50: ≥ 30 mg/kg
Mice [5]
  ED50: 21 mg/kg
Mice [6]
  ED50: > 100 mg/kg

## Cc1cc(C)n2c1CN=C(c1ccccc1Cl)c1cc(Cl)ccc1-2 [Compound 9, 8-chloro-6-(2-chlorophenyl)-1,3-dimethyl-4H-pyrrolo[1,2-a][1,4]benzodiazepine]
Mice [1]
  ED50: 15.5 mg/kg
Mice [8]; 3000 mg/kg
  Acute toxicity: death of the subjects: did not cause any death
Mice [2]
  ED50: 1.8 mg/kg
Mice [3]
  ED50: 8.2 mg/kg
Mice [4]
  ED50: 1.6 mg/kg
Mice [5]
  ED50: 0.34 mg/kg
Mice [6]
  ED50: 100 mg/kg

## c1ccc(C2=NCc3cccn3-c3ccccc32)cc1 [Comparison (R5=H, R6=H, R7=H), reference compound]
Mice [1]
  ED50: > 100 mg/kg
Mice [2]
  ED50: > 100 mg/kg
Mice [3]
  ED50: > 100 mg/kg
Mice [4]
  ED50: 78 mg/kg
Mice [5]
  ED50: 55 mg/kg
Mice [6]
  ED50: > 100 mg/kg

## Cc1cc(C)n2c1CN=C(c1c(F)cccc1F)c1cc(Cl)ccc1-2 [Compound 11, 8-chloro-6-(2,6-difluorophenyl)-1,3-dimethyl-4H-pyrrolo[1,2-a][1,4]benzodiazepine]
Mice [1]
  ED50: 15.5 mg/kg
Mice [8]; 3000 mg/kg
  Acute toxicity: death of the subjects: did not cause any death
Mice [2]
  ED50: 2 mg/kg
Mice [3]
  ED50: 10 mg/kg
Mice [4]
  ED50: 1.6 mg/kg
Mice [5]
  ED50: 0.7 mg/kg
Mice [6]
  ED50: 88 mg/kg

## Cc1ccc2n1-c1ccc(Cl)cc1C(c1ccccc1F)=NC2 [Compound 2, 8-chloro-6-(2-fluorophenyl)-1-methyl-4H-pyrrolo[1,2-a][1,4]benzodiazepine]
Mice [1]
  ED50: > 100 mg/kg
Mice [2]
  ED50: 36 mg/kg
Mice [3]
  ED50: > 100 mg/kg
Mice [4]
  ED50: 55 mg/kg
Mice [5]
  ED50: 6.9 mg/kg
Mice [6]
  ED50: > 100 mg/kg

## Clc1ccc2c(c1)C(c1ccccc1Cl)=NCc1cccn1-2 [Comparison (R5=Cl, R6=Cl, R7=H), reference compound]
Mice [1]
  ED50: > 100 mg/kg
Mice [2]
  ED50: > 100 mg/kg
Mice [3]
  ED50: > 100 mg/kg
Mice [4]
  ED50: > 100 mg/kg
Mice [5]
  ED50: 18 mg/kg
Mice [6]
  ED50: > 100 mg/kg

## CCc1cc2n(c1C)-c1ccc(Cl)cc1C(c1ccccc1Cl)=NC2 [Compound 6, 8-chloro-6-(2-chlorophenyl)-2-ethyl-1-methyl-4H-pyrrolo[1,2-a][1,4]benzodiazepine]
Mice [1]
  ED50: 23.5 mg/kg
Mice [2]
  ED50: 3.4 mg/kg
Mice [3]
  ED50: 14 mg/kg
Mice [4]
  ED50: 5.5 mg/kg
Mice [5]
  ED50: 0.8 mg/kg
Mice [6]
  ED50: > 30 mg/kg

## Cc1ccc2n1-c1ccc(Cl)cc1C(c1ccccc1Cl)=NC2 [Compound 1, 8-chloro-6-(2-chlorophenyl)-1-methyl-4H-pyrrolo[1,2-a][1,4]benzodiazepine]
Mice [1]
  ED50: 100 mg/kg
Mice [2]
  ED50: 20 mg/kg
Mice [3]
  ED50: > 100 mg/kg
Mice [4]
  ED50: 11 mg/kg
Mice [5]
  ED50: 2.8 mg/kg
Mice [6]
  ED50: > 100 mg/kg

## CN1C(=O)CN=C(c2ccccc2)c2cc(Cl)ccc21 [Diazepam, reference compound]
Mice [8]; 1000 mg/kg
  Acute toxicity: death of the subjects: caused half of the mice to die
Mice [2]
  ED50: 0.7 mg/kg
Mice [3]
  ED50: 1 mg/kg
Mice [4]
  ED50: 1.6 mg/kg
Mice [5]
  ED50: 0.3 mg/kg
Mice [6]
  ED50: 8.8 mg/kg
